Laboratory results from patent US20210078972A1, “QUINOLINE OR QUINAZOLINE COMPOUND AND APPLICATION THEREOF” (HAIHE BIOPHARMA CO., LTD., priority 2018, published 2021).

Experiments:
Type in all cases: biochemical
[1] = biological target: T1, AXL kinase domain recombinant protein (Homo sapiens, UniProt P30530); test: AXL kinase inhibition, ELISA; details: ATP 5 μM
T1 construct: the AXL kinase domain recombinant protein (eurofins, 14-512); purchased eurofins 14-512
T1 sequence (P30530 536-807 limits assumed): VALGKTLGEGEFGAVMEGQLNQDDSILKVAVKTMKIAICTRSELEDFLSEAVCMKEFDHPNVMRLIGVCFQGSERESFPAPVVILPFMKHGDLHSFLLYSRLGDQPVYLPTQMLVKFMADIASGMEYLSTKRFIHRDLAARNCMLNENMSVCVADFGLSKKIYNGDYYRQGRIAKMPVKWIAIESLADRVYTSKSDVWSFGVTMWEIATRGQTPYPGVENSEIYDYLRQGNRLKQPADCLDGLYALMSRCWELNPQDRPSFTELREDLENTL
Experimental: Detection of the activity of kinase: Enzyme-linked immunosorbent assay (ELISA) technology was used to detect the inhibitory activities of the compounds against the kinase. […] After the liquid in the well was discarded, the plate was washed three times with T-PBS (PBS containing 0.1% Tween-20), 200 μL T-PBS per well, 5 minutes for each time. The enzyme label plate was dried in an oven at 37° C. for 1-2 hours. To each well was added 50 μL of ATP solution diluted with reaction buffer (50 mM HEPES, pH 7.4, 50 mM MgCl2, 0.5 mM MnCl2, 0.2 mM Na3VO4, 1 mM DTT) with a final concentration of 5 μM. […] Two wells with no enzyme for control are required for each experiment. The plate was incubated on a shaker (100 rpm) at 37° C. and reacted for 1 hour. The plate was washed three times with T-PBS. 100 μ/well of primary antibody PY99 dilution was added and the plate was reacted in a shaker at 37° C. for 0.5 hour. The plate was washed three times with T-PBS. 100 μ/well of secondary antibody horseradish peroxidase-labeled goat anti-mouse IgG dilution was added and the plate was reacted in a shaker at 37° C. for 0.5 hour. The plate was washed three times with T-PBS. 2 mg/ml of OPD color solution was added with 100 μ/well (diluted with 0.1 M citric acid-sodium citrate buffer (pH=5.4) containing 0.03% H2O2), and the plate was reacted at 25° C. in the dark for 1-10 minutes. (Ultrasound is required for the dissolution of OPD, and the color solution needs to be prepared for immediate use). 50 μ/well of 2 M H2SO4 was added to stop the reaction, and the wavelength-adjustable enzyme-labeling instrument SPECTRA MAX 190 was used to read the data at a wavelength of 490 nm.
The inhibition rate of the sample was obtained by the following formula: […]
The IC50 values were obtained by regression with the four-parameter method using the software attached to the enzyme-labeling instrument.

Flt3 kinase = biological target: T2, Flt3 kinase (Homo sapiens, UniProt P36888); test: Flt3 kinase inhibition, Z'-LYTE FRET; details: ATP 500 μM
T2 construct: purchased life PV6253
T2 sequence (P36888 27-993): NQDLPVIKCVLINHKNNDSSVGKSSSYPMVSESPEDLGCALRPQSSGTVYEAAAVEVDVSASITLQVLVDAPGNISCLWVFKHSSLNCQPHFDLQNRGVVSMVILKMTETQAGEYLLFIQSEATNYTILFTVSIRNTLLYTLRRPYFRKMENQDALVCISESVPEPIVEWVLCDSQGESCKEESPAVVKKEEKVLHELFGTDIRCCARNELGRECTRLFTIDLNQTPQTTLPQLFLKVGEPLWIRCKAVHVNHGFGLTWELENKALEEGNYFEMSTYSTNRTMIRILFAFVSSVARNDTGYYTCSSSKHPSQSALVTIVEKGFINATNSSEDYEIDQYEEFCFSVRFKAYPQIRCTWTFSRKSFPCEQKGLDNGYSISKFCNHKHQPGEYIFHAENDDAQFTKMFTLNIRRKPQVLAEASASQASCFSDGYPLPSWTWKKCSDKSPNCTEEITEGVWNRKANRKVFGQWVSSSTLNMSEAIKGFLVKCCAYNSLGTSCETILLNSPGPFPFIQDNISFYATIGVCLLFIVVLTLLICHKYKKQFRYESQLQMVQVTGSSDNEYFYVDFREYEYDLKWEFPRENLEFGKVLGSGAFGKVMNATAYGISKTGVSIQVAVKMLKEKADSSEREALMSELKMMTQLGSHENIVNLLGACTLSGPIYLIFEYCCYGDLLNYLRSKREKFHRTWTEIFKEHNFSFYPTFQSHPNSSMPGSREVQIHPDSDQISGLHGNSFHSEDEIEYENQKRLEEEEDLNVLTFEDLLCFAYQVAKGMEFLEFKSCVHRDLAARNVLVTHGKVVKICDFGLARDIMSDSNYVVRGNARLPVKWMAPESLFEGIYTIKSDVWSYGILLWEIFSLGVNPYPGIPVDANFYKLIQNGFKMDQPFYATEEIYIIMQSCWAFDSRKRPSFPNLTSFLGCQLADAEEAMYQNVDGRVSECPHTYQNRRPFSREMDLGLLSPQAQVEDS
Excerpt: (§1) Detection of the activity of kinase: the inhibitory activities of the compounds against Flt3 kinase (life, PV6253) were detected through a second-order reaction by the Z′-LYTE™ technology (detected by fluorescence, enzyme-coupled form, based on the difference in a sensitivity of phosphorylated and non-phosphorylated polypeptides to proteolytic cleavage), based on the principle of fluorescence resonance energy transfer (FRET), using Z′-LYTE™ FRET peptide substrate (Z′-LYTE™ Tyrosine 2 Peptide Substrate, Invitrogen, PV3191).
Enzymatic reaction: To a 384-well plate were added 5 μL of enzyme-substrate system (50 mM HEPES, pH 7.5, 0.01% BRU-35, 10 mM MgC2, 1 mM EGTA), 2.5 μL of a compound (concentration gradient) and 2.5 μL of a mixed solution of ATP (a final concentration of a substrate Z′-LYTE™ Tyrosine 2 Peptide Substrate was 2 μM, and a final concentration of ATP was 500 μM), and then the plate was incubated at 37° C. in the dark for 1 h.
Detecting reaction: 5 μL of Development Solution (1:64 dilution) was added to each well and the plate was incubated at 37° C. in the dark for 1 h, then 5 μL of Stop Reagent was added.
(§2) The data analysis method is as follows:
(§3) Phosphorylation ratio=1−{(emission ratio×F100%−C100%)/[C0%−C100%+emission ratio×(F100%−F0%)]}×100;
(§4) Inhibition rate=100×(1−compound phosphorylation ratio/negative control phosphorylation ratio).
(§5) The IC50 values were calculated by GraphPad Prism software.

AXL kinase = biological target: T3, AXL kinase (Homo sapiens, UniProt P30530); test: AXL kinase inhibition, Z'-LYTE FRET; details: ATP 50 μM
T3 construct: purchased eurofins 14-500
T3 sequence (P30530 473-894 limits assumed): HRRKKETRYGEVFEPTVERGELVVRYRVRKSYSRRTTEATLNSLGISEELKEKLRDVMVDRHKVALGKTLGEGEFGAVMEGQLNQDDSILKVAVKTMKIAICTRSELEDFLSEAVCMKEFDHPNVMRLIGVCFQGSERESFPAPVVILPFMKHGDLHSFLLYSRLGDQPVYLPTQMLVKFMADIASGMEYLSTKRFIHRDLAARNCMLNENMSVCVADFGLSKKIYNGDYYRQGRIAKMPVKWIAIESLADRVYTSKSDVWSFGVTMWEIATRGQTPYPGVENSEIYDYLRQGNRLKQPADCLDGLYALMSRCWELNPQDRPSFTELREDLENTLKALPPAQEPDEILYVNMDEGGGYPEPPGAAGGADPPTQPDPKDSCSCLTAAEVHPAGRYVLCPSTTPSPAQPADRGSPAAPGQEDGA
Excerpt: as §1, with “AXL” for “Flt3”, “(eurofins, 14-500)” for “(life, PV6253)”, “6” for “2”, “PV4122).” for “PV3191).”
Enzymatic reaction: To a 384-well plate was added 5 μL of enzyme-substrate system (50 mM HEPES, pH 6.5, 0.01% BRU-35, 10 mM MgC2, 1 mM EGTA, 0.02% NaNA), and 5 nL of a compound (concentration gradient) was transferred thereto using an echo520 ultramicro-liquid pipetting system. After the plate was shaken at room temperature for 10-20 min, 25 nL of ATP (a final concentration of 50 μM) was transferred thereto using the echo520 ultramicro-liquid pipetting system. After shaking and well mixing, the mixture was centrifuged and reacted at 30° C. in the dark for 1.5 h.
as §2, §3, §4, §5

IC50 [1]	IC50 (Flt3 kinase)	IC50 (AXL kinase)	SMILES
–	–	2.6 nM	CCOc1cc2ncnc(Oc3ccc(NC(=O)c4c(C)n(C)c5ccc(OC(F)(F)F)cc5c4=O)cc3F)c2cc1OC [TL-241, N-(4-((7-ethoxy-6-methoxyquinazolin-4-yl)oxy)-3-fluorophenyl)-1,2-dimethyl-4-oxo-6-(trifluoromethoxy)-1,4-dihydroquinoline-3-carboxamide]
2.1 nM	2.3 nM	–	COc1cc2ncnc(Oc3ccc(NC(=O)c4c(C)n(C)c5ccc(OC(F)(F)F)cc5c4=O)cc3F)c2cc1OC [TL-198, N-(4-((6,7-dimethoxyquinazolin-4-yl)oxy)-3-fluorophenyl)-1,2-dimethyl-4-oxo-6-(trifluoromethoxy)-1,4-dihydroquinoline-3-carboxamide]
–	–	1.9 nM	COc1cc2c(Oc3ccc(NC(=O)c4c(C)n(C)c5ccc(OC(F)(F)F)cc5c4=O)cc3F)ncnc2cc1OCCN(C)C [TL-233, N-(4-((7-(2-(dimethylamino)ethoxy)-6-methoxyquinazolin-4-yl)oxy)-3-fluorophenyl)-1,2-dimethyl-4-oxo-6-(trifluoromethoxy)-1,4-dihydroquinoline-3-carboxamide]
–	–	4.7 nM	COCCCOc1cc2ncnc(Oc3ccc(NC(=O)c4c(C)n(C)c5ccc(OC(F)(F)F)cc5c4=O)cc3F)c2cc1OC [TL-226, N-(3-fluoro-4-((6-methoxy-7-(3-methoxypropoxy)quinazolin-4-yl)oxy)phenyl)-1,2-dimethyl-4-oxo-6-(trifluoromethoxy)-1,4-dihydroquinoline-3-carboxamide]
4.2 nM	4.7 nM	–	COCCOc1cc2ncnc(Oc3ccc(NC(=O)c4c(C)n(C)c5ccc(OC(F)(F)F)cc5c4=O)cc3F)c2cc1OCCOC [TL-197, N-(4-((6,7-bis(2-methoxyethoxy)quinazolin-4-yl)oxy)-3-fluorophenyl)-1,2-dimethyl-4-oxo-6-(trifluoromethoxy)-1,4-dihydroquinoline-3-carboxamide]
1.8 nM	25.8 nM	–	COCCCOc1cc2c(Oc3ccc(NC(=O)c4c(C)n(C)c5ccc(OC(F)(F)F)cc5c4=O)cc3F)ncnc2cc1OC [TL-199, N-(3-fluoro-4-((7-methoxy-6-(3-methoxypropoxy)quinazolin-4-yl)oxy)phenyl)-1,2-dimethyl-4-oxo-6-(trifluoromethoxy)-1,4-dihydroquinoline-3-carboxamide]

The remaining lines, values behind:

SMILES	IC50 [1]	IC50 (Flt3 kinase)	IC50 (AXL kinase)
COCCCCOc1cc2ncnc(Oc3ccc(NC(=O)c4c(C)n(C)c5ccc(OC(F)(F)F)cc5c4=O)cc3F)c2cc1OC [TL-204, N-(3-fluoro-4-((6-methoxy-7-(4-methoxybutoxy)quinazolin-4-yl)oxy)phenyl)-1,2-dimethyl-4-oxo-6-(trifluoromethoxy)-1,4-dihydroquinoline-3-carboxamide]	1.6 nM	11.2 nM	–
COc1cc2c(Oc3ccc(NC(=O)c4c(C)n(C)c5ccc(OC(F)(F)F)cc5c4=O)cc3F)ncnc2cc1OCCN1CCCCC1 [TL-213, N-(3-fluoro-4-((6-methoxy-7-(2-(piperidin-1-yl)ethoxy)quinazolin-4-yl)oxy)phenyl)-1,2-dimethyl-4-oxo-6-(trifluoromethoxy)-1,4-dihydroquinoline-3-carboxamide]	2.2 nM	6.4 nM	–
COc1cc2c(Oc3ccc(NC(=O)c4c(C)n(C)c5ccc(OC(F)(F)F)cc5c4=O)cc3F)ncnc2cc1OCCCN1CCCC1 [TL-212, N-(3-fluoro-4-((6-methoxy-7-(3-(pyrrolidin-1-yl)propoxy)quinazolin-4-yl)oxy)phenyl)-1,2-dimethy 1-4-oxo-6-(trifluoromethoxy)-1,4-dihydroquinoline-3-carboxamide]	1.5 nM	5.2 nM	–
COc1cc2c(Oc3ccc(NC(=O)c4c(C)n(C)c5ccc(OC(F)(F)F)cc5c4=O)cc3F)ccnc2cc1OCCCN1CCOCC1 [CCB-310, N-(3-fluoro-4-((6-methoxy-7-(3-morpholinopropoxy)quinolin-4-yl)oxy)phenyl)-1,2-dimethyl-4-oxo-6-(trifluoromethoxy)-1,4-dihydroquinoline-3-carboxamide]	1.8 nM	9.5 nM	–
COc1cc2c(Oc3ccc(NC(=O)c4c(C)n(C)c5ccc(OC(F)(F)F)cc5c4=O)cc3F)ncnc2cc1OCCN1CCOCC1 [TL-209, N-(3-fluoro-4-((6-methoxy-7-(2-morpholinoethoxy)quinazolin-4-yl)oxy)phenyl)-1,2-dimethyl-4-ox o-6-(trifluoromethoxy)-1,4-dihydroquinoline-3-carboxamide]	2 nM	9.2 nM	–
